The text below walks through data of patent US11382935B2, “Composition for improving cognitive ability and preventing or treating dementia and attention deficit hyperactivity disorder, comprising Galla rhois extract and fraxin as active ingredients” (priority 2018, dated 2022).

Assay [1] concerns HUVECs. Put plainly: Production of reactive oxygen species (ROS), DCF fluorescence, in H2O2-treated HUVECs. The class given is cell-based, Human. Conditions: for reduction of the H2O2-induced increase in ROS level: H2O2-treated HUVECs, DCF fluorescence, H2O2 increases ROS by 55%; for ROS scavenging effect: HUVECs treated with antioxidant, then hydrogen peroxide.
Assay [2] deals with Human umbilical vein endothelial cells (HUVECs). Put plainly: Antioxidant activity screening. The class given is cell-based. The note with it: screening of components with known antioxidant activity. As for the experimental part:
Compounds used in the antioxidant activity screening of the present invention are A1 to A7 below:
(§1) Human umbilical vein endothelial cells (HUVECs) were treated with each of the 7 types of antioxidants A1-A7, and then an oxidant, hydrogen peroxide, was administered to analyze the degree of cell damage by an MTT assay, and then the activity of superoxide dismutase and catalase was measured.

Assay [3] relates to Superoxide dismutase (SOD). Kind of assay: Superoxide dismutase (SOD) assay in H2O2-treated HUVECs. It is filed as cell-based, Human. The note with it: treated before H2O2 treatment. As for the experimental part: as §1
In assay [4] the test system is HUVECs. Kind of assay: Lipid peroxidation (LPO) assay, MDA amount, in H2O2-exposed cells. It is filed as cell-based, Human. The note with it: cells exposed to H2O2.
Assay [5] relates to Human umbilical vein endothelial cells (HUVECs). Kind of assay: MTT assay of cell damage in hydrogen peroxide-treated HUVECs (cell regeneration effect). The class given is cell-based. Conditions: HUVECs treated with antioxidant, then hydrogen peroxide. As to the method:
as §1
A general note: Formazan colour is commonly taken as a measure of viable cells.

Assay [6] is described as follows: DPPH assay of free radical-scavenging activity. The class given is biochemical. Conditions: absorbance at 517 nm for 10 minutes. As for the experimental part: In the present invention, the experiment was carried out with fraxin having a concentration of 0.5 mM, and this concentration is a result of performing an experiment of the free radical-scavenging activity of fraxin using a DPPH assay. A DPPH solution was treated with various concentrations of fraxin (0.02, 0.1 and 0.5 mM), and a change in absorbance was monitored at 517 nm for 10 minutes. The free radical scavenging activity was approximately 10%, 18% or 50% at the fraxin concentration of 0.02, 0.1 or 0.5 mM, respectively, and 0.5 mM was selected for subsequent experiment.
(DPPH is a stable violet radical that fades when it is reduced.)

Each structure is given as a SMILES string.

For the compound `COc1cc2ccc(=O)oc2c(O[C@@H]2O[C@H](CO)[C@@H](O)[C@H](O)[C@H]2O)c1O` [A3, fraxin], in the assay on HUVECs [1], the “reduction of the H2O2-induced increase in ROS level” value amounted to 39%. The ROS scavenging effect entry with HUVECs [1] is reported as “poor”. Moreover, the antioxidant activity entry in assay [2] is given as “highest activity”. In assay [3], the SOD activity result is recorded as “increase”. Further, the “reduction of the H2O2-induced increase in MDA amount (LPO)” value in the assay on HUVECs [4] is listed as “greatly reduced”. Moreover, in assay [5], the cell regeneration effect result is reported as “high”. The results for the “free radical scavenging activity” value in assay [6] (0.02 mM), in assay [6] (0.1 mM) and in assay [6] (0.5 mM) were “approximately 10%”, roughly 18% and roughly 50%, respectively.

Take `COC(=O)c1cc(O)c(O)c(O)c1` [A4, methyl gallate]: in the assay on HUVECs [1], the “reduction of the H2O2-induced increase in ROS level” value is recorded as 24% and the ROS scavenging effect result is recorded as “high”. Further, the “reduction of the H2O2-induced increase in MDA amount (LPO)” value in the assay with HUVECs [4] is “greatly reduced”. Besides, in assay [5], the cell regeneration effect entry is recorded as “high”.

Turning to `C[C@@H]1O[C@@H](O[C@@H]2[C@@H](O)[C@H](OCCc3ccc(O)c(O)c3)O[C@H](CO)[C@H]2OC(=O)/C=C/c2ccc(O)c(O)c2)[C@H](O)[C@H](O)[C@H]1O` [A6, Acteoside], the ROS scavenging effect result with HUVECs [1] is listed as “did not show”. In assay [5], the cell regeneration effect result is “did not show”.

Take `O=C(CC(O)(CC(=O)OCc1ccc(O[C@@H]2O[C@H](CO)[C@@H](O)[C@H](O)[C@H]2O)cc1)C(=O)O)OCc1ccc(O[C@@H]2O[C@H](CO)[C@@H](O)[C@H](O)[C@H]2O)cc1` [A7, 1,3-bis[4-(3-D-glucopyranosyl)benzyl]citrate]: in the assay on HUVECs [1], the ROS scavenging effect result is given as “did not show”. Besides, the cell regeneration effect entry in assay [5] is “did not show”.

With `O=C(O)c1cc(O)c(O)c(O)c1` [gallic acid], in assay [2], the antioxidant activity entry is recorded as “highest activity”.
